Reference: patent US12318400B2, “Brown and beige adipocyte activating agent containing D-allulose as active ingredient” (NATIONAL UNIVERSITY CORPORATION KAGAWA UNIVERSITY, priority 2018, dated 2025)
Entries after “also recorded” stand apart in the source; their conditions may differ.

Columns and labels:
[1] = test system: UCP-1, PPAR-α, PGC-1α; assay: Example 1: expression levels of UCP-1, PPAR-α and PGC-1α as activation of brown adipocytes; type: in vivo, mice; settings: HFD+2% D-allulose vs HFD
Protocol: (§1) In Examples of the present invention, activation of brown adipocytes was evaluated by the expression level of UCP-1, PPAR-α, or PGC-1α. The influence of administration of D-allulose, one of rare sugars, on brown adipocytes (BAT: abbreviation of brown adipose tissue) was studied. The experiment was performed using 6-week mice and the mice were divided into 3 groups, each group having 5 mice. The treatment was made as follows for 8 weeks. • (1) A group of normal diet and drinking of water (Normal food) • (2) A group of high fat diet and drinking of water (HFD) • (3) A group of high fat diet and drinking of water containing 2% D-allulose (D-allulose) (HFD+2% D-allulose) 2. Evaluation item: • (1) Transition of Body Weight • Transition of Blood Glucose • (2) Size and weight of brown adipocytes under the scapula • (3) Pathological evaluation of the morphological change in brown adipocytes • (4) Evaluation of UCP-1, PPAR-α, and PGC-1α expression levels as activation of brown adipocytes 3.

[2] = test system: brown adipose tissue (BAT); type: in vivo, mice
Protocol: FIG. 10 is a drawing for describing the procedure (protocol) of the experiment of Example 3. Mice are divided into two groups, with one group having five mice. Eight-week-old mice of each group are loaded with a high fat diet (HFD). From four weeks after loading with HFD, one of the groups is loaded with HFD continuously. To the other group, D-allulose (0.2 mg/body weight g/day), in addition to HFD, is administered to the stomach by a sonde. Until week 10, the body weight, food intake, water intake, and blood glucose level are monitored. Glucose was intraperitoneally administered and the blood glucose level after 0, 15, 30, 60, 90, and 120 minutes were measured.

[3] = test system: cell line derived from a single clone from BAT of the adult supraclavicular fossa; assay: Differentiation induction into beige adipocytes in cells (BAT-protocol, WAT-protocol) with addition of D-allulose; type: cell-based
Source text: FIG. 21 is a drawing for describing, with regard to an experiment using cells (a single-clone-derived cell strain is established from BAT of adult supraclavicular fossa portion and is used as a research model of differentiation induction into beige adipocytes), two protocols, that is, BAT-protocol and WAT-protocol, for inducing beige adipocytes. FIG. 22 is a drawing for describing, in an experiment using cells, protocols including two protocols, that is, BAT-protocol and WAT-protocol, for inducing beige adipocytes and further including addition of D-allulose. […] They are presumed to participate in the activation of brown adipocytes. • 10) FIG. 20 is a drawing for describing two protocols for inducing beige adipocytes, that is, BAT-protocol and WAT-protocol used in an experiment using cells (a cell line derived from a single clone from BAT of the adult supraclavicular fossa is established and used as a research model of the differentiation induction into beige adipocytes). FIG. 21 is a drawing for describing a protocol including two protocols for inducing beige adipocytes, that is, BAT-protocol and WAT-protocol and further including addition of D-allulose in an experiment using cells.

[4] = test system: beige adipocytes; assay: Example 3: marker expression in beige adipocytes of HFD-loaded mice after D-allulose; type: in vivo
Protocol: (§2) (Purpose) The influence of D-allulose administration to mice on their brown adipose tissue is confirmed. In addition, differentiation of beige adipocytes is studied with a change in UCP-1 expression or the like as a marker. Mice are divided into two groups, each group having five mice. Eight-week-old mice of each group are loaded with a high fat diet (HFD). From four weeks after loading with HFD, one of the groups is loaded with HFD continuously. To the other group, D-allulose (0.2 mg/body weight g/day) together with HFD is administered to the stomach by a sonde. Until week 10, the body weight, food intake, water intake, and blood glucose level are monitored. The administration of D-allulose has a possibility of contributing a weight loss by inducing beige adipocytes and activating brown adipocytes. • 9) With regard to the details of the induction of beige adipocytes and the activation of brown adipocytes caused by D-allulose administration, expression of UCP-1 and Prdm16 which are genes involved in thermogenesis, Pgcl-α and Tfam which are genes reflecting the mitochondrial function of organelle involved in thermogenesis, and PPARγ which is a gene related to the differentiation of fat are investigated and the results are shown in FIG. 19.

[5] = test system: brown adipocytes; assay: Example 3: marker expression in brown adipocytes of HFD-loaded mice after D-allulose; type: in vivo
Protocol: as §2

[6] = test system: type 2 diabetic patients; assay: Example 2: human clinical test of D-allulose (D-psicose) in type 2 diabetic patients; type: in vivo
Source text: Type 2 diabetic patients unable to get sufficient effects by any of the following treatments (HbA1c: 6.5% or more) […] • 1) Only diet therapy and exercise therapy • 2) Drug therapy in addition to diet therapy and exercise therapy <Exclusion Standards> • 1) Patients having a contraindication to D-allulose (D-psicose) administration • 2) Patients who are participating in another clinical trial • 3) Pregnant women, parturients, lactating women, or women who may be pregnant • 4) Patients having 8% or more HbA1c and poor in blood glucose control • 5) Patients recognized to have severe renal dysfunction (serum creatinine level: 1.5 mg/dl or more) • 6) Patients having another severe complication <Experimenting Method> D-allulose (D-psicose) powders: provided as sticks each containing 5 g/pack (product of Rare Sweet) It was orally administered with 5 g per dose three times a day. Twelve type 2 diabetic patients (4 male cases, 8 female cases) who could be observed for 3 months were compared for general findings and blood test before administration and 12 weeks after administration (Wilcoxon signed rank test).

[7] = test system: brown adipocytes (BAT); assay: Example 1: high fat diet mice given 2% D-allulose drinking water, body weight, blood glucose and brown adipocytes; type: in vivo
Protocol: as §1, with “The” for “In Examples of the present invention, activation of brown adipocytes was evaluated by the expression level of UCP-1, PPAR-α, or PGC-1α. The”

[8] = HFD mice, D-allulose administered group
[9] = presence or absence of D-allulose
[10] = classical brown adipose tissue, HFD-loaded mice
[11] = after administration vs before administration
[12] = before vs 12 weeks after administration, 5 g three times a day
[13] = 6-week mice, HFD+2% D-allulose water, 8 weeks, vs HFD group

## O=C(CO)[C@H](O)[C@H](O)[C@H](O)CO [D-allulose]
[1]
  PGC-1α expression level: induced more strongly
  PPAR-α expression level: induced more strongly
  UCP-1 expression level: induced UCP-1 further
[2]; HFD mice, D-allulose 0.2 mg/body weight g/day by sonde, from week 2 after administration is started
  Increasing degree of body weight: lowers significantly
[2]; HFD mice, D-allulose 0.2 mg/body weight g/day, from week 3 after administration is started
  Fasting blood glucose level: a reduction in fasting blood glucose level is observed
[2]; [8]
  Area of brown adipocytes (BAT): increase
  Weight of brown adipocytes (BAT): increase
[2]; after 10 weeks, glucose intraperitoneally, after 90 and 120 minutes, vs control group
  Blood glucose level in the glucose loading test: significantly decreases
[2]; mouse, in vivo
  Food intake: no significant change
  Water intake: no significant change
[3]; D-allulose administered group, markers UCP-1, Prdm16, Pgc-1α, tfam, cox8b, PPARγ
  Expression of all the markers: significantly increased
[3]; WAT-protocol
  PPARγ expression: enhances the expression
  Pgc-1α expression: enhances the expression
  Prdm16 expression: enhances the expression
  UCP-1 protein expression: slightly enhances
[3]; addition of D-allulose to the differentiation inducing protocol
  oil-red-O (fat staining): promotes
[3]; both differentiation protocols
  PPARγ expression: enhances expression of PPARγ
[3]; [9]
  PPARγ expression: increased
  UCP-1 expression: increased
[4]; HFD-loaded mice
  UCP-1 mRNA expression: significantly increased
  UCP-1 protein expression: significantly increased
[4]; gene panel
  PPARγ gene expression: increased
  Pgcl-α gene expression: increased
  Prdm16 gene expression: increased
  Tfam gene expression: increased
  UCP-1 gene expression: increased
[5]; brown adipocytes, gene panel
  Prdm16 gene expression: increase
  Tfam gene expression: increase
  UCP-1 gene expression: increase
[5]; [10]
  UCP-1 mRNA expression: increased
  UCP-1 protein expression: increased
[6]; 2 months after administration
  TNF-α level: significant decrease
[6]; 5 g three times a day orally, 3 months after administration, 12 patients
  Body weight decrease on average: 1 kg
[6]; 5 g three times a day orally, after 3 months
  Body weight: significant decrease in body weight
[6]; [11]
  MCP-1 level: significantly decreased
  TNF-α level: significantly decreased
[6]; [12]
  GA: No significant difference
  HbA1c: No significant difference
  adiponectin: No significant difference
  leptin: No significant difference
[7]; [13]
  Transition of blood glucose: a decrease in blood glucose was recognized
  Transition of body weight: a decrease in body weight was observed
[7]; HFD+2% D-allulose, 8 weeks, vs HFD group
  Size and weight of brown adipocytes under the scapula: an increase in brown adipocytes was recognized
[7]; HFD+2% D-allulose, tissue staining, vs HFD group (steatosis)
  Pathological evaluation of the morphological change in brown adipocytes: improved to have almost a normal state; also recorded: almost morphologically similar to that of the normal diet intake group
